Laboratory results: patent publication US4401660A, “Ester derivatives of 5-O-mycaminosyl tylonolide and method of using same” (Eli Lilly and Company, priority 1981, dated 1983)

Columns and labels:
[1] = system: Mycoplasma hyorhinis; assay: MIC, broth-dilution microtiter test (Table III); format: cell-based; design: unit not given here
Method: (§1) The MIC's in Table II were determined by standard agar-dilution assays. The MIC's in Table III were obtained using a conventional broth-dilution microtiter test.

[2] = system: Pasteurella multocida 60A; assay: MIC, broth-dilution microtiter test (Table III); format: cell-based; design: unit not given here; details: avian isolate
Method: as §1

[3] = system: Pasteurella multocida 68C; assay: MIC, broth-dilution microtiter test (Table III); format: cell-based; design: unit not given here
Method: as §1

[4] = system: Pasteurella haemolytica 41D; assay: MIC, broth-dilution microtiter test (Table III); format: cell-based; design: unit not given here
Method: as §1

[5] = system: Streptococcus sp. 80; assay: MIC, broth-dilution microtiter test (Table III); format: cell-based; design: unit not given here
Method: as §1

[6] = system: Mycoplasma gallisepticum; assay: MIC, broth-dilution microtiter test (Table III); format: cell-based; design: unit not given here
Method: as §1

[7] = system: Pasteurella multocida 17E; assay: MIC, broth-dilution microtiter test (Table III); format: cell-based; design: unit not given here; details: bovine isolate
Method: as §1

[8] = system: Staphylococcus aureus; assay: MIC, broth-dilution microtiter test (Table III); format: cell-based; design: unit not given here
Method: as §1

[9] = system: Pasteurella haemolytica 22C; assay: MIC, broth-dilution microtiter test (Table III); format: cell-based; design: unit not given here
Method: as §1

[10] = system: Pasteurella multocida 40G; assay: MIC, broth-dilution microtiter test (Table III); format: cell-based; design: unit not given here
Method: as §1

[11] = system: Mycoplasma synoviae; assay: MIC, broth-dilution microtiter test (Table III); format: cell-based; design: unit not given here
Method: as §1

[12] = system: Pasteurella haemolytica 23C; assay: MIC, broth-dilution microtiter test (Table III); format: cell-based; design: unit not given here
Method: as §1

[13] = system: Pasteurella multocida 22A; assay: MIC, broth-dilution microtiter test (Table III); format: cell-based; design: unit not given here
Method: as §1

[14] = system: Staphylococcus epidermidis EPI2; assay: MIC, standard agar-dilution assay (Table II); format: cell-based; design: unit not given here
Method: as §1

[15] = system: Staphylococcus aureus X400; assay: MIC, standard agar-dilution assay (Table II); format: cell-based; design: unit not given here; details: Staphylococcus aureus X400, methicillin-resistant strain
Method: as §1

[16] = system: Haemophilus influenzae Holt; assay: MIC, standard agar-dilution assay (Table II); format: cell-based; design: unit not given here; details: ampicillin-sensitive strain
Method: as §1

[17] = system: Streptococcus pyogenes C203; assay: MIC, standard agar-dilution assay (Table II); format: cell-based; design: unit not given here
Method: as §1

[18] = system: Staphylococcus aureus V41; assay: MIC, standard agar-dilution assay (Table II); format: cell-based; design: unit not given here; details: Staphylococcus aureus V41, penicillin-resistant strain
Method: as §1

[19] = system: Streptococcus Group D X66; assay: MIC, standard agar-dilution assay (Table II); format: cell-based; design: unit not given here
Method: as §1

[20] = system: Staphylococcus aureus X1.1; assay: MIC, standard agar-dilution assay (Table II); format: cell-based; design: unit not given here
Method: as §1

[21] = system: Staphylococcus aureus S13E; assay: MIC, standard agar-dilution assay (Table II); format: cell-based; design: unit not given here
Method: as §1

[22] = system: Streptococcus pneumoniae Park I; assay: MIC, standard agar-dilution assay (Table II); format: cell-based; design: unit not given here
Method: as §1

[23] = system: Staphylococcus epidermidis EPI1; assay: MIC, standard agar-dilution assay (Table II); format: cell-based; design: unit not given here
Method: as §1

[24] = system: Streptococcus Group D 9960; assay: MIC, standard agar-dilution assay (Table II); format: cell-based; design: unit not given here
Method: as §1

[25] = system: Haemophilus influenzae R252; assay: MIC, standard agar-dilution assay (Table II); format: cell-based; design: unit not given here; details: Haemophilus influenzae R252, ampicillin-resistant strain
Method: as §1

[26] = system: Pasteurella multocida; assay: Treatment of Pasteurella infections in chicks (Table V); format: in vivo, one-day-old chicks; details: Pasteurella multocida, sc, 4 h; 30 mg/kg by subcutaneous injection one and four hours post challenge; read-out: Deaths in Treated Chicks/Number Treated (converted)
Method in brief: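 Dosing was 30 mg/kg by subcutaneous injection, one and four hours after challenge. Day-old chicks received 0.1 ml of a 10^-3 dilution of a 20-hour tryptose broth culture of avian P. multocida subcutaneously. Nonmedicated infected chicks served as controls, ten per group.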

CCC1OC(=O)CC(O)C(C)C(OC2OC(C)C(OC(C)=O)C(N(C)C)C2OC(C)=O)C(CC=O)CC(C)C(=O)C=CC(C)=CC1COS(=O)(=O)c1ccc(C)cc1 (stereo not drawn) [Compound 55]
minimal inhibitory concentration (MIC) [1]: 0.78 | minimal inhibitory concentration (MIC) [2]: 3.12 | minimal inhibitory concentration (MIC) [3]: 3.12 | minimal inhibitory concentration (MIC) [4]: 6.25 | minimal inhibitory concentration (MIC) [5]: 0.05 | minimal inhibitory concentration (MIC) [6]: 0.05 | minimal inhibitory concentration (MIC) [7]: 3.12 | minimal inhibitory concentration (MIC) [8]: 0.195 | minimal inhibitory concentration (MIC) [9]: 3.12 | minimal inhibitory concentration (MIC) [10]: 6.25 | minimal inhibitory concentration (MIC) [11]: 0.05 | minimal inhibitory concentration (MIC) [12]: 3.12 | minimal inhibitory concentration (MIC) [13]: 6.25 | minimal inhibitory concentration (MIC) [14]: 0.25 | minimal inhibitory concentration (MIC) [15]: 0.25 | minimal inhibitory concentration (MIC) [16]: 1 | minimal inhibitory concentration (MIC) [17]: 0.06 | minimal inhibitory concentration (MIC) [18]: 0.125 | minimal inhibitory concentration (MIC) [19]: 0.125 | minimal inhibitory concentration (MIC) [20]: 0.125 | minimal inhibitory concentration (MIC) [21]: 0.25 | minimal inhibitory concentration (MIC) [22]: 0.03 | minimal inhibitory concentration (MIC) [23]: 0.25 | minimal inhibitory concentration (MIC) [24]: 0.125 | minimal inhibitory concentration (MIC) [25]: 1 | mortality at 30 mg/kg [26]: 100%

CCC(=O)OCC1C=C(C)C=CC(=O)C(C)CC(CC=O)C(OC2OC(C)C(OC(=O)CC)C(N(C)C)C2OC(=O)CC)C(C)C(O)CC(=O)OC1CC (stereo not drawn) [Compound 8, 2',4',23-Tri-O-propionyl-OMT]
minimal inhibitory concentration (MIC) [1]: 0.78 | minimal inhibitory concentration (MIC) [2]: 1.56 | minimal inhibitory concentration (MIC) [3]: 1.56 | minimal inhibitory concentration (MIC) [4]: 3.12 | minimal inhibitory concentration (MIC) [5]: 0.195 | minimal inhibitory concentration (MIC) [6]: 0.048 | minimal inhibitory concentration (MIC) [7]: 1.56 | minimal inhibitory concentration (MIC) [8]: 0.39 | minimal inhibitory concentration (MIC) [9]: 3.12 | minimal inhibitory concentration (MIC) [10]: 1.56 | minimal inhibitory concentration (MIC) [11]: 0.048 | minimal inhibitory concentration (MIC) [12]: 6.25 | minimal inhibitory concentration (MIC) [13]: 3.12 | minimal inhibitory concentration (MIC) [14]: 0.25 | minimal inhibitory concentration (MIC) [15]: 0.5 | minimal inhibitory concentration (MIC) [16]: 2 | minimal inhibitory concentration (MIC) [17]: 0.25 | minimal inhibitory concentration (MIC) [18]: 0.5 | minimal inhibitory concentration (MIC) [19]: 0.5 | minimal inhibitory concentration (MIC) [20]: 0.25 | minimal inhibitory concentration (MIC) [21]: 0.5 | minimal inhibitory concentration (MIC) [22]: 0.25 | minimal inhibitory concentration (MIC) [23]: 0.25 | minimal inhibitory concentration (MIC) [24]: 0.5 | minimal inhibitory concentration (MIC) [25]: 4 | mortality at 30 mg/kg [26]: 60%

CCC1OC(=O)CC(O)C(C)C(OC2OC(C)C(O)C(N(C)C)C2OC(C)=O)C(CC=O)CC(C)C(=O)C=CC(C)=CC1COC(=O)CCCC(=O)OC (stereo not drawn) [Compound 71]
minimal inhibitory concentration (MIC) [1]: 12.5 | minimal inhibitory concentration (MIC) [2]: 6.25 | minimal inhibitory concentration (MIC) [3]: 6.25 | minimal inhibitory concentration (MIC) [4]: 12.5 | minimal inhibitory concentration (MIC) [5]: 1.56 | minimal inhibitory concentration (MIC) [6]: 0.195 | minimal inhibitory concentration (MIC) [7]: 6.25 | minimal inhibitory concentration (MIC) [8]: 0.78 | minimal inhibitory concentration (MIC) [9]: 50 | minimal inhibitory concentration (MIC) [10]: 3.12 | minimal inhibitory concentration (MIC) [11]: 0.78 | minimal inhibitory concentration (MIC) [12]: 12.5 | minimal inhibitory concentration (MIC) [13]: 3.12 | minimal inhibitory concentration (MIC) [14]: 0.25 | minimal inhibitory concentration (MIC) [15]: 0.25 | minimal inhibitory concentration (MIC) [16]: 2 | minimal inhibitory concentration (MIC) [17]: 0.25 | minimal inhibitory concentration (MIC) [18]: 0.25 | minimal inhibitory concentration (MIC) [19]: 0.25 | minimal inhibitory concentration (MIC) [20]: 0.25 | minimal inhibitory concentration (MIC) [21]: 0.25 | minimal inhibitory concentration (MIC) [22]: 0.03 | minimal inhibitory concentration (MIC) [23]: 0.25 | minimal inhibitory concentration (MIC) [24]: 0.5 | minimal inhibitory concentration (MIC) [25]: 2 | mortality at 30 mg/kg [26]: 60%

CCC1OC(=O)CC(O)C(C)C(OC2OC(C)C(O)C(N(C)C)C2O)C(CC=O)CC(C)C(=O)C=CC(C)=CC1COC(=O)Cc1ccc([N+](=O)[O-])cc1 (stereo not drawn) [Compound 65]
minimal inhibitory concentration (MIC) [1]: 0.78 | minimal inhibitory concentration (MIC) [2]: 3.12 | minimal inhibitory concentration (MIC) [3]: 3.12 | minimal inhibitory concentration (MIC) [4]: 3.12 | minimal inhibitory concentration (MIC) [5]: 0.195 | minimal inhibitory concentration (MIC) [6]: 0.195 | minimal inhibitory concentration (MIC) [7]: 3.12 | minimal inhibitory concentration (MIC) [8]: 0.39 | minimal inhibitory concentration (MIC) [9]: 3.12 | minimal inhibitory concentration (MIC) [10]: 1.56 | minimal inhibitory concentration (MIC) [11]: < 0.05 | minimal inhibitory concentration (MIC) [12]: 3.12 | minimal inhibitory concentration (MIC) [13]: 3.12 | minimal inhibitory concentration (MIC) [14]: 0.125 | minimal inhibitory concentration (MIC) [15]: 0.125 | minimal inhibitory concentration (MIC) [16]: 1 | minimal inhibitory concentration (MIC) [17]: 0.06 | minimal inhibitory concentration (MIC) [18]: 0.125 | minimal inhibitory concentration (MIC) [19]: 0.125 | minimal inhibitory concentration (MIC) [20]: 0.125 | minimal inhibitory concentration (MIC) [21]: 0.125 | minimal inhibitory concentration (MIC) [22]: 0.03 | minimal inhibitory concentration (MIC) [23]: 0.125 | minimal inhibitory concentration (MIC) [24]: 0.125 | minimal inhibitory concentration (MIC) [25]: 1 | mortality at 30 mg/kg [26]: 73.3%

CCC1OC(=O)CC(O)C(C)C(OC2OC(C)C(O)C(N(C)C)C2O)C(CC=O)CC(C)C(=O)C=CC(C)=CC1COS(=O)(=O)c1ccc(NC(C)=O)cc1 (stereo not drawn) [Compound 56, 23-O-(p-Acetamidobenzenesulfonyl)-OMT]
minimal inhibitory concentration (MIC) [1]: 12.5 | minimal inhibitory concentration (MIC) [2]: 3.12 | minimal inhibitory concentration (MIC) [3]: 3.12 | minimal inhibitory concentration (MIC) [4]: 6.25 | minimal inhibitory concentration (MIC) [5]: 0.195 | minimal inhibitory concentration (MIC) [6]: 0.39 | minimal inhibitory concentration (MIC) [7]: 3.12 | minimal inhibitory concentration (MIC) [8]: 0.78 | minimal inhibitory concentration (MIC) [9]: 6.25 | minimal inhibitory concentration (MIC) [10]: 6.25 | minimal inhibitory concentration (MIC) [11]: 0.78 | minimal inhibitory concentration (MIC) [12]: 6.25 | minimal inhibitory concentration (MIC) [13]: 6.25 | minimal inhibitory concentration (MIC) [14]: 2 | minimal inhibitory concentration (MIC) [15]: 2 | minimal inhibitory concentration (MIC) [16]: 2 | minimal inhibitory concentration (MIC) [17]: 0.125 | minimal inhibitory concentration (MIC) [18]: 2 | minimal inhibitory concentration (MIC) [19]: 1 | minimal inhibitory concentration (MIC) [20]: 1 | minimal inhibitory concentration (MIC) [21]: 1 | minimal inhibitory concentration (MIC) [22]: 0.06 | minimal inhibitory concentration (MIC) [23]: 0.5 | minimal inhibitory concentration (MIC) [24]: 1 | minimal inhibitory concentration (MIC) [25]: 2 | mortality at 30 mg/kg [26]: 100%

CCC1OC(=O)CC(O)C(C)C(OC2OC(C)C(O)C(N(C)C)C2OC(C)=O)C(CC=O)CC(C)C(=O)C=CC(C)=CC1COC(=O)C(C)(C)C (stereo not drawn) [Compound 67]
minimal inhibitory concentration (MIC) [1]: 0.39 | minimal inhibitory concentration (MIC) [2]: 3.12 | minimal inhibitory concentration (MIC) [3]: 1.56 | minimal inhibitory concentration (MIC) [4]: 6.25 | minimal inhibitory concentration (MIC) [5]: < 0.78 | minimal inhibitory concentration (MIC) [6]: < 0.048 | minimal inhibitory concentration (MIC) [7]: 3.12 | minimal inhibitory concentration (MIC) [8]: 1.56 | minimal inhibitory concentration (MIC) [9]: 12.5 | minimal inhibitory concentration (MIC) [10]: 3.12 | minimal inhibitory concentration (MIC) [11]: < 0.048 | minimal inhibitory concentration (MIC) [12]: 6.25 | minimal inhibitory concentration (MIC) [13]: 3.12 | minimal inhibitory concentration (MIC) [14]: 0.25 | minimal inhibitory concentration (MIC) [15]: 0.25 | minimal inhibitory concentration (MIC) [16]: 1 | minimal inhibitory concentration (MIC) [17]: 0.125 | minimal inhibitory concentration (MIC) [18]: 0.25 | minimal inhibitory concentration (MIC) [19]: 0.25 | minimal inhibitory concentration (MIC) [20]: 0.25 | minimal inhibitory concentration (MIC) [21]: 0.25 | minimal inhibitory concentration (MIC) [22]: 0.06 | minimal inhibitory concentration (MIC) [23]: 0.25 | minimal inhibitory concentration (MIC) [24]: 0.25 | minimal inhibitory concentration (MIC) [25]: 1 | mortality at 30 mg/kg [26]: 80%
